Entries after “also recorded” stand apart in the source; their conditions may differ.
Assays:
NanoLuc [1] = biological target: T1, NanoLuc (Oplophorus gracilirostris, UniProt Q9GV45, A31E/A60N/A81I/F95D/I117V/K70R/L54V/L99Q/M102K/N193R/P142E/Q151K/Q38R/Q45L/V71I/Y165I); type: biochemical; settings: relative value, Furimazine set to 1; NanoLuc; read three minutes after substrate addition
Procedure: Luminescence Assay Procedure:
Each compound to be screened was dissolved in DMSO (5 mM) and then further diluted to 100 μM in NANO-GLO® Luciferase Assay Buffer. Km values were determined by first serially diluting substrates two-fold into NANO-GLO® Luciferase Assay Buffer. Substrate dilutions were then combined with an equal volume of NanoLuc diluted to 4 ng/ml in TBS+0.01% BSA. Autoluminescence was measured by combining the 100 uM dilution of substrate with TBS+0.01% BSA. Luminescence and autoluminescence values were measured in a GloMax®-Multi+ luminometer three minutes after substrate addition. Signal decay was measured by combining equal volumes of 100 uM of substrate with 4 ng/ml NanoLuc in TBS+0.01% BSA and then samples were read in five minute intervals for two hours using a GloMax®-Multi+. Km was calculated using GraphPad Prism using nonlinear Michaelis-Menten regression. Signal half-life values were calculated using GraphPad Prism Non-linear decay, plateau set to zero.

[2] = tested on: NanoLuc-HaloTag (Nluc-HT); test: Fluorescent labeling of NanoLuc-HaloTag, SDS/PAGE fluorescence imaging; type: biochemical; settings: 0.5 μM protein, 50 μM label, 30 minutes, room temperature
Procedure: The efficiency of the NanoLuc suicide substrates was compared with a chloroalkane-FAM substrate with a fusion protein in which the HaloTag protein (SEQ ID NO: 5) is fused to either glutathione transferase (GST) or NanoLuc.
Either FAM chloroalkane or coelenterazine FAM substrate was incubated with glutathione transferase-HaloTag (GST-HT) or NanoLuc-HaloTag (Nluc-HT) fusions. The reactions were with 0.5 μM protein (GST-HT or Nluc-HT) and 50 μM of label (100× excess of label) and incubated for 30 minutes at room temperature. The sample titrations of each sample were then loaded to the SDS/PAGE gel. The fluorescence (473ex) (Cy2 filter set) was read and quantified. […] Results are quantified in FIG. 8B.

NanoLuc [3] = biological target: T1, NanoLuc; test: Inhibition of NanoLuc luciferase: blocking of furimazine luminescence after pre-incubation; type: biochemical; settings: for Inhibition of NanoLuc (bioluminescence upon later furimazine addition): compound incubated with NanoLuc first, then furimazine (10 μM) added
Procedure: Compounds were also tested for their ability to block furimazine luminescence with NanoLuc. Typically, NanoLuc (0.4 μg/mL) in DMEM was incubated with either furimazine or test compound (50 μM) while monitoring RLU's with a GloMax® luminometer for 10-60 minutes. After the set time, the plate was removed from the instrument, and a dose of furimazine (10 μM) was added to the well containing the test compound and monitored for 10-60 minutes.
FIGS. 3A-B depicts inhibition of Nluc luciferase by furimazine-h. Furimazine-h (10 μM) was incubated with NanoLuc in NanoGlo or DMEM for 15 or 10 minutes, respectively. This bright signal rapidly degrades to a fraction of the signal observed in the furimazine positive control wells.
FIG. 9 depicts inhibition of Nluc luciferase by furimazine-h. This is a reverse addition experiment as compared to FIG. 3. Furimazine (10 μM) was incubated with NanoLuc in NanoGlo® buffer for 15 minutes.
JRW-0855 and JRW-1088 were incubated with NanoLuc in DMEM for 12 minutes. […] After the incubation period, 10 μM furimazine was added to the well.

[4] = Stability in solution noted at preparation; type: physicochemical; settings: note at preparation
[5] = tested on: NanoLuc-HaloTag fusion protein; test: Direct and two-step labeling with TCO-tetrazine or DBCO-azide pair, fluorescence imaging on SDS/PAGE gel; type: biochemical; settings: for Two-step labeling with tetrazine-FAM (JRW-1577): second step tetrazine-FAM (JRW-1577)
Procedure: Similar to the previous example, NanoLuc-HaloTag protein was incubated with compounds to either directly label or label via the two-step process with FAM. Compounds were incubated with the NanoLuc-HaloTag fusion protein and analyzed by florescence imaging on SDS/PAGE gel.

[6] = biological target: NanoBiT™ Binary luciferase (Oplophorus gracilirostris, UniProt Q9GV45, A31E/A60N/A81I/F95D/I117V/K70R/L54V/L99Q/M102K/P142E/Q151K/Q38R/Q45L/V71I/Y165I); test: Inhibition of NanoBiT Binary luciferase (HiBiT + LgBiT); type: biochemical
NanoBiT™ Binary luciferase, sequence (Q9GV45 other isoform, or with tags, fused parts or gaps with the stated changes): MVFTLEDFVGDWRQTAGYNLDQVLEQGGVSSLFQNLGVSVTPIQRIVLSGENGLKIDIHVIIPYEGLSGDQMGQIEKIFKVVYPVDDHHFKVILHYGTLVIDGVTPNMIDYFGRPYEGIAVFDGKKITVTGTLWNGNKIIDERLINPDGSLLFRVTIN
Procedure: Compounds were also tested for their ability to inhibit the NanoBiT™ Binary luciferase. HiBiT (SEQ ID NO: 3) and LgBiT (SEQ ID NO: 4) (two subunits of the NanoBiT™ luciferase) were incubated with furimazine or furimazine-h for 15 minutes. Following the incubation period, 10 μM furimazine was added. […] This signal rapidly degrades to a fraction of the signal observed in the furimazine positive control wells. Addition of furimazine to the furimazine positive control wells results in an increase in bioluminescence.

T1 sequence (Q9GV45 28-196 with tags or gaps with the stated changes limits assumed): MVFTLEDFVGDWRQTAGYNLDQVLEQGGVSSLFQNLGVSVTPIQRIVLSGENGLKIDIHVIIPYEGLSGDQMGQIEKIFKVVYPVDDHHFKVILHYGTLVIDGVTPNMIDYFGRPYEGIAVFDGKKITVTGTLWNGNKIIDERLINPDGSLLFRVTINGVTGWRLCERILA

SMILES	RLU (at 100 μM) (NanoLuc [1])	Inhibition of NanoLuc (bioluminescence upon later furimazine addition) (NanoLuc [3])	Stability in solution [4]	further results
O=C(NCCCCCCCCOc1ccc(Cc2nc3c(Cc4ccccc4)[nH]c(-c4ccc(O)cc4)cn-3c2=O)cc1F)c1ccc(C(=O)[O-])c(-c2c3ccc(O)cc3[o+]c3cc(O)ccc23)c1 [JRW-0906, 4-((8-(4-((8-benzyl-6-(4-hydroxyphenyl)-3-oxo-3,7-dihydroimidazo[1,2-a]pyrazin-2-yl)methyl)-2-fluorophenoxy)octyl)carbamoyl)-2-(3,6-dihydroxyxanthylium-9-yl)benzoate]	0.036	exemplary suicide substrates of NanoLuc	–	Labeling efficiency relative to the chloroalkane-HT system [2]: ~50%
CN(C)c1ccc2c(-c3cc(C(=O)NCCCCCCOc4ccc(Cc5nc6c(Cc7ccccc7)[nH]c(-c7ccc(O)cc7)cn-6c5=O)cc4F)ccc3C(=O)[O-])c3ccc(N(C)C)cc3[o+]c2c1 [JRW-0857, 4-((6-(4-((8-benzyl-6-(4-hydroxyphenyl)-3-oxo-3,7-dihydroimidazo[1,2-a]pyrazin-2-yl)methyl)-2-fluorophenoxy)hexyl)carbamoyl)-2-(3,6-bis(dimethylamino)xanthylium-9-yl)benzoate]	0.00000029	did not inhibit NanoLuc	instability in solution	–
CC(=O)Oc1ccc2c(c1)Oc1cc(OC(C)=O)ccc1C21OC(=O)c2ccc(C(=O)NCCCCCCCCOc3ccc(Cc4nc5c(Cc6ccccc6)[nH]c(-c6ccc(O)cc6)cn-5c4=O)cc3F)cc21 [JRW-0972, 6-((8-(4-((8-benzyl-6-(4-hydroxyphenyl)-3-oxo-3,7-dihydroimidazo[1,2-a]pyrazin-2-yl)methyl)-2-fluorophenoxy)octyl)carbamoyl)-3-oxo-3H-spiro[isobenzofuran-1,9′-xanthene]-3′,6′-diyl diacetate]	0.00005	did not inhibit NanoLuc	instability in solution	–
CN(C)c1ccc2c(-c3cc(C(=O)NCCCCCCCCOc4ccc(Cc5nc6c(Cc7ccccc7)[nH]c(-c7ccc(O)cc7)cn-6c5=O)cc4F)ccc3C(=O)[O-])c3ccc(N(C)C)cc3[o+]c2c1 [JRW-0912, 4-((8-(4-((8-benzyl-6-(4-hydroxyphenyl)-3-oxo-3,7-dihydroimidazo[1,2-a]pyrazin-2-yl)methyl)-2-fluorophenoxy)octyl)carbamoyl)-2-(3,6-bis(dimethylamino)xanthylium-9-yl)benzoate]	0.000061	did not inhibit NanoLuc	instability in solution	–
O=C(CCC(=O)N1Cc2ccccc2C#Cc2ccccc21)NCCCCCCCCOc1ccc(Cc2nc3c(Cc4ccccc4)[nH]c(-c4ccc(O)cc4)cn-3c2=O)cc1F [JRW-1549, N^1-(8-(4-((8-benzyl-6-(4-hydroxyphenyl)-3-oxo-3,7-dihydroimidazo[1,2-a]pyrazin-2-yl)methyl)-2-fluorophenoxy)octyl)-N^4-DBCO-succinamide]	–	–	–	Two-step labeling with Azide-FAM ([5]; second step Azide-FAM): little to no labeling
CN(C)c1ccc2c(-c3cc(C(=O)NCCOCCOCCC(=O)NCCCCCCCCOc4ccc(Cc5cc6c(Cc7ccccc7)[nH]c(-c7ccc(O)cc7)cn-6c5=O)cc4F)ccc3C(=O)[O-])c3ccc(N(C)C)cc3[o+]c2c1 [JRW-0927, 4-((2-(2-(3-((8-(4-((1-benzyl-3-(4-hydroxyphenyl)-6-oxo-2,6-dihydropyrrolo[1,2-a]pyrazin-7-yl)methyl)-2-fluorophenoxy)octyl)amino)-3-oxopropoxy)ethoxy)ethyl)carbamoyl)-2-(3,6-bis(dimethylamino)xanthylium-9-yl)benzoate]	0.0000024	did not inhibit NanoLuc	instability in solution	–
[N-]=[N+]=NCCCCCCCCOc1ccc(Cc2nc3c(Cc4ccccc4)[nH]c(-c4ccc(O)cc4)cn-3c2=O)cc1F [JRW-1022, 2-(4-((8-azidooctyl)oxy)-3-fluorobenzyl)-8-benzyl-6-(4-hydroxyphenyl)imidazo[1,2-a]pyrazin-3(7H)-one]	–	partial Nluc inhibitors	–	Two-step labeling with DBCO-FAM ([5]; second step DBCO-FAM): two-step labeling occurs
COc1cc2c(c(Cl)c1OC(C)=O)Oc1c(cc(OC)c(OC(C)=O)c1Cl)C21OC(=O)c2ccc(C(=O)NCCCCCCCCOc3ccc(Cc4nc5c(Cc6ccccc6)[nH]c(-c6ccc(O)cc6)cn-5c4=O)cc3F)cc21 [JRW-0986, 6-((8-(4-((8-benzyl-6-(4-hydroxyphenyl)-3-oxo-3,7-dihydroimidazo[1,2-a]pyrazin-2-yl)methyl)-2-fluorophenoxy)octyl)carbamoyl)-4′,5′-dichloro-2′,7′-dimethoxy-3-oxo-3H-spiro[isobenzofuran-1,9′-xanthene]-3′,6′-diyl diacetate]	0.00005	did not inhibit NanoLuc	instability in solution	–
O=c1c(Cc2ccco2)nc2c(Cc3ccccc3)[nH]c(-c3ccc(O)cc3)cn1-2 [Furimazine-h, 8-benzyl-2-(furan-2-ylmethyl)-6-(4-hydroxyphenyl)imidazo[1,2-a]pyrazin-3(7H)-one, reference compound]	1	NanoLuc is inhibited; also recorded: exemplary suicide substrates of NanoLuc	–	Inhibition of NanoLuc, reverse addition (NanoLuc [3]; furimazine (10 μM) with NanoLuc in NanoGlo buffer 15 minutes, then compound added): rapid signal decay; Inhibition of NanoBiT luciferase ([6]; 15 minutes incubation, then 10 μM furimazine added): effectively inhibited; Initial luminescent signal compared with furimazine ([6]; HiBiT and LgBiT incubated with compound): comparable to that of furimazine
O=C(NCCOCCOCCCCCCCl)OC1CC/C=C/CCC1 (stereo not shown) [JRW-1567, (E)-cyclooct-4-en-1-yl (2-(2-((6-chlorohexyl)oxy)ethoxy)ethyl)carbamate]	–	–	–	Two-step labeling with tetrazine-FAM (JRW-1577) [5]: two-step labeling occurs
O=C(NCCCCCCCCOc1ccc(Cc2nc3c(Cc4ccccc4)[nH]c(-c4ccc(O)cc4)cn-3c2=O)cc1F)OC1CC/C=C/CCC1 (stereo not shown) [JRW-1566, (E)-cyclooct-4-en-1-yl (8-(4-((8-benzyl-6-(4-hydroxyphenyl)-3-oxo-3,7-dihydroimidazo[1,2-a]pyrazin-2-yl)methyl)-2-fluorophenoxy)octyl)carbamate]	–	–	–	Two-step labeling with tetrazine-FAM (JRW-1577) [5]: two-step labeling of NanoLuc

From US11655247B2, “Nanoluc suicide substrates” (PROMEGA CORPORATION, priority 2018, dated 2023)
